Experimental data published in PMC11868579 (Nature Communications, 2024).
Values joined by “and” are separate entries in the source; they are usually repeats but may differ in a detail not shown here. Equal values may be shown once.

What was measured:
[1] = target: T1, eIF4E L85R (Homo sapiens, UniProt P06730, L85R); experiment: CETSA in eIF4E-dTAG model expressing L85R eIF4E; format: cell-based; conditions: intact cells
T1 construct: expressed in transfected cells; host or cells: H1299 eIF4E-dTAG clone C3-1, eIF4E-dTAG depleted with dTAG^V-1 before compound
T1 sequence (P06730 whole entry L85R): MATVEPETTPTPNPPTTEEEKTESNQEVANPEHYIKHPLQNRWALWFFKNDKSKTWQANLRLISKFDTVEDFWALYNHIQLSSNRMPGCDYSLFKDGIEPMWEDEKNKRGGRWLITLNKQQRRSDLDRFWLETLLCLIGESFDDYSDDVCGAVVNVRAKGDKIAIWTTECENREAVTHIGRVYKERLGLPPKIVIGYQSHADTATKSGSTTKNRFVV
Experimental: Cells (1.5 × 10^6 cells) were plated into 75 cm^2 flasks and allowed to attached overnight. After treatment with compound 4 or 5 for 6 h, they were harvested by trypsinisation and washed x2 in ice cold PBS. Cells were resuspended in 1 ml of cold PBS supplemented with protease and phosphatase inhibitors (Fisher Scientific, cat#1861281). Resuspended cells were divided into 100 μl aliquots and centrifuged at 300 x g for 3 min at 4 °C. Following centrifugation, 75μl of supernatant was removed and cells resuspended in the remaining volume. Cell suspensions were heated at 40.9, 43.7, 48.1, 52.9, 57.6, 62.4, 67.2, 71.9, 76.3 and 79.1 °C for 3 mins followed by cooling at 20 °C for 3 min[25]. Suspensions were freeze-thawed twice using liquid nitrogen. Soluble fractions were separated from cell debris by centrifuging at 20,000 x g for 30 min at 4 °C. Samples were then analysed by Western Blot.
Supplementary Fig. 18. Comparison of compound 4 binding to wild-type or […]
Cells were treated with dTAGV-1 (1 μM) for 16 hr. Compound 4 (10 μM) or compound 5 (10 μM) was then added for 6 hrs.
Vi nculin was used for loading control. Blots are from one biological repeat. b […]
was used as loading control . c Cells were treated with dTAGV -1 (1 μM) for 16 hr.
Compound 4 (50 μM) or compound 5 (50 μM) was then added for 6 hrs. […]
following incubation at 48.1 °C. Vinculin was used for loaing control. All blots are […]

[2] = target: T2, eIF4G binding to eIF4E (Homo sapiens, UniProt P06730); experiment: Co-immunoprecipitation with eIF4E antibody, immunoblot for eIF4G, SW620 lysates; format: biochemical; conditions: 1–100 µM, 30 min
T2 construct: endogenous in cells; host or cells: SW620 cells (lysates)
T2 sequence (P06730 2-217 limits assumed): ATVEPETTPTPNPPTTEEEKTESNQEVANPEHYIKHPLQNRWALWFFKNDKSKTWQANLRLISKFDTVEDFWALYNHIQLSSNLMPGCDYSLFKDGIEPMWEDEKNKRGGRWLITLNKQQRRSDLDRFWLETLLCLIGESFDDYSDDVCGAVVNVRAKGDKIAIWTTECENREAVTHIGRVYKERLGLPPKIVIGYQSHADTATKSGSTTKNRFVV
Experimental: Cells were harvested by trypsinisation and washed with PBS before lysis in MSD lysis buffer (150 mM NaCl, 20 mM Tris pH 7.5, 1 mM EDTA, 1 mM EGTA, 1% Triton X-100) containing protease inhibitors (Roche, complete mini tablet, cat# 11836153001) and phosphatase inhibitors (50 mM NaF and 100 mM Na3VO4). Lysate was placed on ice for 30 min and then cleared in a microfuge at 17,000 x g for 10 min at 4 °C. The protein concentration of the cleared lysate was determined by BCA assay (Pierce) and adjusted to 4 mg/ml with lysis buffer. […] 100 μl of lysate and 100 μl of beads were then incubated with shaking overnight at 4 °C. Samples were then washed 3x with 1 ml PBS, resuspended in 100 μl PBS and boiled for 10 min with 1x SDS-PAGE sample buffer containing 10 μl 1 mM DTT.
After seeding overnight in 6 well plates (Corning, cat#353046), cells were treated with compounds for the indicated times and concentration, harvested and the cell pellet lysed on ice in cell lysis buffer (Cell Signaling, cat#9803), supplemented with 1x Halt^TM protease inhibitor cocktail (Fisher Scientific, cat#78429) and cOmplete^TM protease inhibitor cocktail (Sigma-Aldrich, cat#11836153001) for 1 hr. Protein was quantified using BCA protein kit (Fisher Scientific, cat#23225). […] Quantitative densitometry analysis of protein bands was performed using Image J v1.53 software.

[3] = tested on: IRES-driven translation; experiment: HeLa in vitro translation assay, IRES-driven reporter; format: biochemical, human; conditions: for rLuc (IRES) luminescence normalized to DMSO control, Average: HeLa lysate IVT, n=3
Experimental: HeLa In vitro translation (IVT) assay kits were purchased from Thermo Fisher(cat#88882). Bicistronic reporter mRNA was prepared from using a CMV/T7-renilla luciferase-IRES(FDMV)-firefly luciferase reporter vector as template DNA (supplied by Oxford Genetics Ltd.) using Message Machine T7 Ultra transcription Kit (Thermo Fisher, cat# AM1345) to generate in vitro transcribed mRNA. DNA template was removed with Turbo DNase from the transcription kit and the mRNA purified using RNeasy columns (Qiagen, cat#74204). RNA concentration was adjusted to 1 µg/µl using a Nanodrop. In vitro translation assays were then set up using a HeLa IVT kit according to the manufacturer’s protocol. The reaction was analysed using Dual Glo luciferase reporter assays (Promega, cat#E2920). Compounds were diluted from 100x DMSO stocks 1:10 in PBS and 2.5 µl transferred to 96 well PCR plates (Starlab, cat#I1402-9700). 22.5 µl IVT reaction mix (1.5 mL HeLa lysate, 60 µl RNAsin (Promega, cat#N2115), 300 µl accessory proteins, 600 µl reaction buffer, 200 µl nuclease free water and 30 µl […] mRNA) was added and incubated for 30 min at 30 °C (PCR alphacycler 4, PCRmax, Stone, Staffordshire, UK). The samples were placed on ice for 10 min, then 10 µl was removed and transferred to a white 96 well assay plate (Corning, cat#3917). […]

[4] = tested on: H1299 clone C3-1; experiment: Concentration response of cell survival, clone C3-1, Incucyte; format: cell-based, human; conditions: clone C3-1, 5 days continuous exposure
Experimental: Real time monitoring of cell growth was performed with the IncuCyte ZOOM live cell imaging system (Essen BioSciences, USA). Cells were seeded in 96 well plates (Corning, cat#353072) and treated on the next day. The resulting phase-contrast images were analysed using IncuCyte ZOOM 2018A software and results were expressed as percentage confluency of cells.
Supplementary Fig. 14 Treatment of the eIF4E-dTAG-degradation model with negative control dTAGV-1 compound. a Plot of concentration responsiveness versus cell survival for H1299 clone C3-1 following 120 hr exposure to different concentrations of dTAGv-1. Cell confluency (%) was calculated using Incucyte Zoom software and plotted as the mean ± SD from 3 biological replicates. b Immunoblot of […]
clone treated with 0.5 µM dTAGV-1 or the negative control dTAGV-1 compound for the indicated times. Vinculin was used as a loading control. The immunoblot shown is representative of 3 biological replicates. c Real-time cell confluency measurements of H1299 parental cells treated with 0.5 or 1 µM of dTAGV-1 or the negative control […]
2) treated with 0.5 or 1 µM of the negative control dTAGV-1 compound. Cells were monitored every 4 hr over a 6-day period. Cell confluency (%) was calculated using Incucyte Zoom software and shown as the mean ± SEM from 3 biological replicates.
(§1) (1 picture or pasted object on this page, not shown here)

[5] = tested on: 4E-BP1 protein expression; experiment: Immunoblot of 4E-BP1 expression after dTAGV-1; format: cell-based, human; conditions: 1μM, control = 1.00
Experimental: Supplementary Fig. 15 Expression of 4E-BP1 following dTAGV-1 treatment. a […]
16 hr treatment of 1 µM dTAGV-1 or DMSO control in H1299 parental cells and the […]
Vinculin was used as a loading control. Results are representative of 3 biological replicates. b Quantification of 4E-BP1 protein expression […]
was normalised to the DMSO negative control immunoblot (mean ± SEM of 3 […]
differences (p<0.05). Source data is located in the Supplementary Source Data file.
as §1

CC[C@H](O[C@H](C)CO)c1ccc(-c2ccccc2F)cc1NCCO [Compound 4]
thermal stabilisation of L85R eIF4E [1]: showed evidence for compound 4 binding | effect on eIF4G binding to eIF4E (co-immunoprecipitation) [2]: disrupted eIF4G binding to eIF4E | EC50 ([3]; HeLa in vitro translation, 30 min, read-out: effect on IRES-driven translation): > 100000 nM | rLuc (IRES) luminescence normalized to DMSO control, Average ([3]; 1 μM): 97.0% | rLuc (IRES) luminescence normalized to DMSO control, Average ([3]; 10 μM): 85.6% | rLuc (IRES) luminescence normalized to DMSO control, Average ([3]; 100 μM): 88.7%

CC[C@@H](O[C@H](C)CO)c1ccc(-c2ccccc2F)cc1NCCO [Compound 5]
effect on eIF4G binding to eIF4E (co-immunoprecipitation) [2]: limited effect | effect on cap-independent IRES-driven translation ([3]; 1, 10, 100 µM): no significant effect | rLuc (IRES) luminescence normalized to DMSO control, Average ([3]; 1 μM): 100.6% | rLuc (IRES) luminescence normalized to DMSO control, Average ([3]; 10 μM): 89.2% | rLuc (IRES) luminescence normalized to DMSO control, Average ([3]; 100 μM): 98.4%

CC[C@H](C(=O)N1CCCC[C@H]1C(=O)O[C@H](CCc1ccc(OC)c(OC)c1)c1ccccc1OCC(=O)NCCCCCCC(=O)N[C@H](C(=O)N1C[C@H](O)C[C@H]1C(=O)N[C@@H](C)c1ccc(-c2scnc2C)cc1)C(C)(C)C)c1cc(OC)c(OC)c(OC)c1 [dTAG^V-1]
IC50 [4]: 205 nM and 206 nM | Quantification of 4E-BP1 protein expression, Average ([5]; H1299 cells): 0.99 | Quantification of 4E-BP1 protein expression, Average ([5]; eIF4E dTAG C3-1 clone): 0.88
